These results are taken from patent US12389911B2, “Benzimidazole compound or salt thereof, agricultural and horticultural insecticidal and acaricidal agent containing said compound, and method for using same” (NIHON NOHYAKU CO., LTD., priority 2019, dated 2025).

This series concerns Two-spotted spider mite (Tetranychus urticae). The series is described as follows: Acaricidal action on two-spotted spider mite (kidney bean leaf disk spray). It is filed as in vivo. Conditions: 500 ppm, adult females, 25° C., two days after treatment. As to the method: Acaricidal Action on Two-Spotted Spider Mite (Tetranychus urticae)
Leaf disk having a diameter of 2 cm was prepared by leaves of kidney bean, and the leaf disk was placed on the wetted filter paper. Adult hens of two-spotted spider mite were inoculated on the wetted filter paper, and then 50 ml of an agrochemical dispersion, prepared by diluting a formulation containing the benzimidazole compound represented by the general formula (1) of the present invention or salt thereof as an active ingredient to adjust each of the concentrations to 500 ppm, was sprayed on turntable uniformly. After the spraying, it was allowed to stand in a thermostatic chamber at 25° C. Two days after the treatment of an agrochemical dispersion, the dead mites were counted, the corrected mortality rate was calculated according to the formula shown below, and the acaricidal efficacy was evaluated according to the criteria of Test Example 2. This test was conducted in duplicate using 10 adult hens of two-spotted spider per plot. Corrected mortality(%)=(Number of dead mites in a non-treatment plot−Number of dead mites in a treatment plot)/(Number of dead mites in a non-treatment plot)×100 [Expression 4]
As to `CCS(=O)(=O)n1c(-n2nc(COC(C)(C)C)c(C(=O)OC(C)(C)C)c2C)nc2ccccc21` [Compound 2-91], the “acaricidal efficacy (corrected mortality rate), activity level” value (“acaricidal efficacy” for short) is “D or higher”.

Turning to `C#CCOc1nn(-c2nc3ccccc3n2S(=O)(=O)CC)cc1C(=O)OC(C)(C)C` [Compound 2-92], the “acaricidal efficacy” value was “D or higher”.

With `CCS(=O)(=O)n1c(-n2cc(C(=O)OC(C(F)(F)F)C(F)(F)F)cn2)nc2ccccc21` [Compound 2-93], the “acaricidal efficacy” value is listed as “D or higher”.

On to `CCS(=O)(=O)n1c(-n2cc(C(=O)NCC(F)(F)F)c(C(C)(C)C)n2)nc2ccccc21` [Compound 2-94], for which the “acaricidal efficacy” value was “D or higher”.

`CCS(=O)(=O)n1c(-n2cc(C(=O)NCC(F)(F)F)c(C(=O)NCC(F)(F)F)n2)nc2ccccc21` [Compound 2-95]: the “acaricidal efficacy” value is reported as “D or higher”.

In the case of `CCS(=O)(=O)n1c(-n2cc(C(=O)NC3CC3)c(C(C)(C)C)n2)nc2ccccc21` [Compound 2-96], the “acaricidal efficacy” value was “D or higher”.

`CCS(=O)(=O)n1c(-n2cc(C(=O)NC(C)(C)C)c(C(C)(C)C)n2)nc2ccccc21` [Compound 2-97]: the “acaricidal efficacy” value is “D or higher”.

As for `CCS(=O)(=O)n1c(-n2cc(C(=O)N(C)C(C)(C)C)c(C(=O)N(C)C(C)(C)C)n2)nc2ccccc21` [Compound 2-98], the “acaricidal efficacy” value is recorded as “D or higher”.

For `CCS(=O)(=O)n1c(-n2cc(C#N)c(C(C)(C)C)n2)nc2ccccc21` [Compound 2-99], the “acaricidal efficacy” value is “D or higher”.

With `CCS(=O)(=O)n1c(-n2cc(C#Cc3ccccc3)c(OCC(F)(F)F)n2)nc2ccccc21` [Compound 2-100], the “acaricidal efficacy” value was “D or higher”.

Regarding `CCS(=O)(=O)n1c(-n2cc(CCc3ccccc3)c(OCC(F)(F)F)n2)nc2ccccc21` [Compound 2-101], the “acaricidal efficacy” value is given as “D or higher”.

As for `CCS(=O)(=O)n1c(-n2cc(CCC(=O)OC(C)(C)C)c(OCC(F)(F)F)n2)nc2ccccc21` [Compound 2-102], the “acaricidal efficacy” value was “D or higher”.

Take `CCS(=O)(=O)n1c(-n2ccc(OCCCC(=O)OC(C)(C)C)n2)nc2ccccc21` [Compound 2-103]: the “acaricidal efficacy” value was “D or higher”.

In the case of `CCS(=O)(=O)n1c(-n2cc(I)c(C(=O)OC(C)(C)C)n2)nc2ccccc21` [Compound 2-104], the “acaricidal efficacy” value was “D or higher”.

Consider `CCS(=O)(=O)n1c(-n2cc(C3CC3)c(C(=O)OC(C)(C)C)n2)nc2ccccc21` [Compound 2-105], for which the “acaricidal efficacy” value was “D or higher”.

Regarding `CCS(=O)(=O)n1c(-n2cc(C#Cc3ccccc3)c(C(=O)OC(C)(C)C)n2)nc2ccccc21` [Compound 2-106], the “acaricidal efficacy” value is reported as “D or higher”.

On to `CCS(=O)(=O)n1c(-n2cc(CCc3ccccc3)c(C(=O)OC(C)(C)C)n2)nc2ccccc21` [Compound 2-107], for which the “acaricidal efficacy” value was “D or higher”.

Regarding `CCS(=O)(=O)n1c(-n2cc(C#N)c(C(=O)OC(C)(C)C)n2)nc2ccccc21` [Compound 2-108], the “acaricidal efficacy” value is “D or higher”.

Turning to `CCS(=O)(=O)n1c(-n2cc(CCc3ccccc3)c(C#N)n2)nc2ccccc21` [Compound 2-109], the “acaricidal efficacy” value is on record as “D or higher”.

`C#Cc1cn(-c2nc3ccccc3n2S(=O)(=O)CC)nc1C(F)(F)F` [Compound 2-110]: the “acaricidal efficacy” value is “D or higher”.

Take `CCS(=O)(=O)n1c(-n2cc(C#N)c(C(F)(F)C(F)(F)F)n2)nc2ccccc21` [Compound 2-111]: the “acaricidal efficacy” value is recorded as “D or higher”.

In the case of `CCS(=O)(=O)n1c(-n2cc(/C=C/C(=O)OC(C(F)(F)F)C(F)(F)F)c(C(F)(F)F)n2)nc2ccccc21` [Compound 2-112], the “acaricidal efficacy” value is reported as “D or higher”.

For the molecule `CCS(=O)(=O)n1c(-n2cc(/C=C/C(=O)OCC(C)(C)C)c(C(F)(F)F)n2)nc2ccccc21` [Compound 2-113], the “acaricidal efficacy” value is reported as “D or higher”.

As to `CCS(=O)(=O)n1c(-n2cc(/C=C/C(=O)OCc3ccc(C(C)(C)C)cc3)c(C(F)(F)F)n2)nc2ccccc21` [Compound 2-114], the “acaricidal efficacy” value was “D or higher”.

`CCS(=O)(=O)n1c(-n2cc(/C=C/C(=O)OCc3ccc(C(F)(F)F)cc3)c(C(F)(F)F)n2)nc2ccccc21` [Compound 2-115]: the “acaricidal efficacy” value is listed as “D or higher”.

In the case of `CCS(=O)(=O)n1c(-n2cc(/C=C/C(=O)OCC34CC5CC(CC(C5)C3)C4)c(C(F)(F)F)n2)nc2ccccc21` [Compound 2-116], the “acaricidal efficacy” value is reported as “D or higher”.

With `CCS(=O)(=O)n1c(-n2cc(/C=C/C(=O)NCC(F)(F)F)c(C(F)(F)F)n2)nc2ccccc21` [Compound 2-117], the “acaricidal efficacy” value is listed as “D or higher”.

As to `CCS(=O)(=O)n1c(-n2cc(C#Cc3ccccn3)c(C(F)(F)F)n2)nc2ccccc21` [Compound 2-118], the “acaricidal efficacy” value is given as “D or higher”.

Consider `CCS(=O)(=O)n1c(-n2cc(C(C)=O)c(C)n2)nc2ccccc21` [Compound 2-119], for which the “acaricidal efficacy” value was “D or higher”.

As to `CCS(=O)(=O)n1c(-n2cc(S(=O)(=O)N(C)C)c(C(F)(F)F)n2)nc2ccccc21` [Compound 2-120], the “acaricidal efficacy” value was “D or higher”.

On to `CCS(=O)(=O)n1c(-n2cc(SCc3ccc(C(C)(C)C)cc3)c(C(F)(F)F)n2)nc2ccccc21` [Compound 2-121], for which the “acaricidal efficacy” value is “D or higher”.

As for `CCCC#Cc1cn(-c2nc3ccccc3n2S(=O)(=O)CC)nc1C(F)(F)F` [Compound 2-122], the “acaricidal efficacy” value is listed as “D or higher”.

For `CCS(=O)(=O)n1c(-n2cc(C#CC3CC3)c(C(F)(F)F)n2)nc2ccccc21` [Compound 2-123], the “acaricidal efficacy” value was “D or higher”.

For the molecule `CCS(=O)(=O)n1c(-n2cc(C#CC(C)(C)C)c(C(F)(F)F)n2)nc2ccccc21` [Compound 2-124], the “acaricidal efficacy” value is listed as “D or higher”.

Consider `CCCCCc1cn(-c2nc3ccccc3n2S(=O)(=O)CC)nc1C(F)(F)F` [Compound 2-125], for which the “acaricidal efficacy” value is given as “D or higher”.

As to `CCS(=O)(=O)n1c(-n2cc(CCC3CC3)c(C(F)(F)F)n2)nc2ccccc21` [Compound 2-126], the “acaricidal efficacy” value is reported as “D or higher”.

In the case of `CCS(=O)(=O)n1c(-n2cc(CCC(C)(C)C)c(C(F)(F)F)n2)nc2ccccc21` [Compound 2-127], the “acaricidal efficacy” value is recorded as “D or higher”.

As to `CCS(=O)(=O)n1c(-n2cc(C#CCOC)c(C(F)(F)F)n2)nc2ccccc21` [Compound 2-128], the “acaricidal efficacy” value is given as “D or higher”.

For `CCS(=O)(=O)n1c(-n2cc(C#CC(C)(C)OC)c(C(F)(F)F)n2)nc2ccccc21` [Compound 2-129], the “acaricidal efficacy” value was “D or higher”.

For the molecule `CCS(=O)(=O)n1c(-n2cc(/C=C/C(=O)OC(C)(C)C)c(C(=O)OC(C)(C)C)n2)nc2ccccc21` [Compound 2-130], the “acaricidal efficacy” value was “D or higher”.

Take `CCS(=O)(=O)n1c(-n2cc(C(=O)CC(C)(C)C)c(CC(C)(C)C)n2)nc2ccccc21` [Compound 2-131]: the “acaricidal efficacy” value is “D or higher”.

As to `CCS(=O)(=O)n1c(-n2cc(C#CCOC(=O)C(C)(C)C)c(C(F)(F)F)n2)nc2ccccc21` [Compound 2-132], the “acaricidal efficacy” value is recorded as “D or higher”.

On to `CCS(=O)(=O)n1c(-n2cc(C#CC(C)(C)C)c(C(=O)OC(C)(C)C)n2)nc2ccccc21` [Compound 2-133], for which the “acaricidal efficacy” value is reported as “D or higher”.

With `CCS(=O)(=O)n1c(-n2cc(CCCOC(=O)C(C)(C)C)c(C(F)(F)F)n2)nc2ccccc21` [Compound 2-134], the “acaricidal efficacy” value is listed as “D or higher”.

`CCS(=O)(=O)n1c(-n2cc(CCC(=O)OC(C)(C)C)c(C(=O)OC(C)(C)C)n2)nc2ccccc21` [Compound 2-135]: the “acaricidal efficacy” value is “D or higher”.

With `CCS(=O)(=O)n1c(-n2cc(Br)c(OC(F)(F)C(=O)N(C)C)n2)nc2ccccc21` [Compound 2-136], the “acaricidal efficacy” value was “D or higher”.

As for `CCS(=O)(=O)n1c(-n2cc(CCC(C)(C)C)c(C(=O)OC(C)(C)C)n2)nc2ccccc21` [Compound 2-137], the “acaricidal efficacy” value was “D or higher”.

In the case of `CCS(=O)(=O)n1c(-n2cc(C#CCOCC(F)(F)F)c(C(F)(F)F)n2)nc2ccccc21` [Compound 2-138], the “acaricidal efficacy” value is “D or higher”.

On to `CCS(=O)(=O)n1c(-n2cc(C(=O)OC(C)(C)C)c(OC(F)F)n2)nc2ccccc21` [Compound 2-139], for which the “acaricidal efficacy” value is reported as “D or higher”.

As to `CCS(=O)(=O)n1c(-n2cc(SCC(F)(F)C(F)(F)F)cn2)nc2ccccc21` [Compound 2-141], the “acaricidal efficacy” value was “D or higher”.

Take `CCS(=O)(=O)n1c(-n2cc(C(=O)CC(C)C)c(CC(C)C)n2)nc2ccccc21` [Compound 2-142]: the “acaricidal efficacy” value is reported as “D or higher”.
